Test in all cases: NCI tumour cell line growth inhibition, 48 h
For test [1], the system named is SN12C.
The test system of test [2] is NCI-H522.
For test [3], the system named is SF-268.
The subject of test [4] is Malme-3M.
For test [5], the system named is UO-31.
Test [6] deals with IGROV-1.
For test [7], the system named is UACC-62.
In test [8] the test system is OVCAR-8.
Test [9] has as its system OVCAR-5.
Test [10] concerns SK-MEL-5.
Test [11] has as its system HCT-15.
Test [12] relates to M14.
Test [13] relates to SK-OV-3.
Test [14] deals with SW-620.
Test [15] concerns HCC 2998.
The test system of test [16] is NCI/ADR-RES.
The test system of test [17] is MCF7.
The subject of test [18] is DU-145.
Test [19] concerns T47D.

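In this assay, cells in 96-well plates receive the compound at five concentrations for 48 hours. Endpoints are linearly interpolated between the surrounding concentrations. GI50 marks 50% less growth.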 Active and inactive are the calls of the source. No stated cut-off is given here; in the data, active = GI50 up to about 1.1 µM and inactive = higher.

On to `Cn1cnc2nc(Cl)nc(NC(C)(C)C(C)(C)O)c21`, for which the GI50 in test [1] is > 100 µM (inactive); in test [2], 72.4 µM (inactive); in test [3], > 100 µM (inactive); in test [4] it was > 100 µM (inactive); in test [5], > 100 µM (inactive); in test [6], > 100 µM (inactive). Also, the GI50 in test [7] is > 100 µM (inactive); in test [8], > 100 µM (inactive); in test [9], > 100 µM (inactive); in test [10] it was > 100 µM (inactive); in test [11], more than 100 µM; in test [12], > 100 µM (inactive). Besides, the GI50 in test [13], in test [14] and in test [15] was > 100 µM (inactive) each time.

On to `c1ccc(NN=C(c2ccccn2)c2ccccn2)nc1`, for which the GI50 is 0.142 µM (active) in test [1]; < 0.01 µM (active) in test [2]; 0.157 µM (active) in test [16]; 0.388 µM (active) in test [3]; 0.0653 µM (active) in [4]; 0.0267 µM (active) in test [5]. Besides, the GI50 in test [6] was 0.0153 µM (active); in test [7] it was 0.153 µM (active); in test [8], 0.0384 µM (active); in test [9], 0.794 µM (active); in test [17], < 0.0245 µM (active); in test [10] it was 0.0893 µM (active). The GI50 in test [11] was 0.0893 µM; in [12] it was 0.152 µM (active); in test [13], 0.369 µM (active); in [14], 0.141 µM (active); in test [18], 0.331 µM (active); in test [15] it was 2.23 µM (inactive).

Take `O=C(CSc1nnc(-c2ccccn2)s1)N/N=C/c1ccc([N+](=O)[O-])cc1`: the GI50 in test [1] was 69.8 µM (inactive); in test [2] it was > 100 µM (inactive); in test [16] it was > 100 µM (inactive); in test [3] it was 22.1 µM (inactive); in test [4] it was > 100 µM (inactive); in [5] it was < 0.01 µM (active). The GI50 was 20.9 µM (inactive) in [6]; 76.4 µM (inactive) in [7]; 41.8 µM (inactive) in test [8]; > 100 µM (inactive) in [9]; > 100 µM (inactive) in [17]; 37.1 µM (inactive) in test [19]. Further, the GI50 in [10] was > 100 µM (inactive); in [11], 45.6 µM; in [12] it was > 100 µM (inactive); in test [13] it was 35.2 µM (inactive); in test [14], > 100 µM (inactive); in test [18], 11.4 µM (inactive).

Turning to `c1ccc(-c2nnn3c2NC2=C(CCCC2)C3c2ccccc2)cc1` (centres undefined), the GI50 was 21.1 µM (inactive) in test [1]; 5.68 µM (inactive) in test [2]; 21.7 µM (inactive) in test [16]; 21.3 µM (inactive) in [3]; 17.1 µM (inactive) in test [5]; 17.5 µM (inactive) in test [6]. The GI50 in [7] was 16.4 µM (inactive); in test [8], 2.06 µM (inactive); in test [9] it was 16 µM (inactive); in test [17], 17.1 µM (inactive); in [19], 22.5 µM (inactive); in [10], 14.2 µM (inactive). Moreover, the GI50 in test [11] is 1.54 µM; in test [12], 18.8 µM (inactive); in test [13], 22.1 µM (inactive); in test [14], 12.5 µM (inactive); in test [18] it was 17.7 µM (inactive).

With `C=C(Cl)C(C)(Cl)CCC(Cl)C(C)C` (centres undefined), the GI50 is > 100 µM (inactive) in test [1]; 37 µM (inactive) in [2]; > 100 µM (inactive) in [16]; > 100 µM (inactive) in test [3]; > 100 µM (inactive) in test [4]; > 100 µM (inactive) in test [5]. Also, the GI50 is > 100 µM (inactive) in test [6]; > 100 µM (inactive) in test [7]; > 100 µM (inactive) in test [9]; > 100 µM (inactive) in test [17]; > 100 µM (inactive) in [10]; 57.7 µM (inactive) in [12]. For the same compound, the GI50 in test [13] is 29.6 µM (inactive); in test [14], 99.5 µM (inactive); in [18] it was > 100 µM (inactive); in [15], > 100 µM (inactive).

Take `Cc1nc2c(=O)n(C)ncc2[nH]1`: the GI50 in test [1], in test [16], in [3], in [5], in test [6] and in [7] was > 100 µM (inactive) each time. Further, the GI50 in test [8] is > 100 µM (inactive); in test [9] it was > 100 µM (inactive); in test [17], > 100 µM (inactive); in [19], > 100 µM (inactive); in test [10] it was > 100 µM (inactive); in test [11], more than 100 µM. Besides, the GI50 in test [12], in [14] and in test [18] was > 100 µM (inactive) throughout.

Consider `O=C1C2CCCCC2C(=O)N1n1c(-c2ccccc2)n[nH]c1=O` (centres undefined), for which the GI50 in [1], in [2], in test [16], in test [3], in [4] and in test [5] was > 100 µM (inactive) in each case. Also, the GI50 in test [6], in test [7], in test [8], in test [9], in test [17] and in test [19] was > 100 µM (inactive) in each case. Besides, the GI50 in test [10] is > 100 µM (inactive); in test [11] it was more than 100 µM; in test [12], > 100 µM (inactive); in test [13], > 100 µM (inactive); in test [14] it was > 100 µM (inactive); in [15], > 100 µM (inactive).

In the case of `Cn1cc(S(=O)(=O)NC(=O)Nc2ccc(Cl)cc2)c(=O)c2ccc(Cl)cc21`, the GI50 is 99.3 µM (inactive) in test [1]; 20.9 µM (inactive) in test [2]; 38 µM (inactive) in [16]; > 100 µM (inactive) in test [3]; > 100 µM (inactive) in test [4]; > 100 µM (inactive) in test [5]. The GI50 in test [6] was > 100 µM (inactive); in test [7], 20.9 µM (inactive); in [8] it was > 100 µM (inactive); in test [9] it was > 100 µM (inactive); in [17], > 100 µM (inactive); in test [19], > 100 µM (inactive). Further, the GI50 in test [10] is > 100 µM (inactive); in test [11] it was 25.7 µM; in test [12], > 100 µM (inactive); in [13] it was > 100 µM (inactive); in test [14], > 100 µM (inactive); in [15] it was 85.3 µM (inactive).

For the compound `C[N+]1(CCCl)CC[N+](C)(CCCl)CC1` (centres undefined), the GI50 in test [1] is > 100 µM (inactive); in test [16] it was > 100 µM (inactive); in test [3] it was > 100 µM (inactive); in test [4], > 100 µM (inactive); in test [5], 99.5 µM (inactive); in [6] it was > 100 µM (inactive). In addition, the GI50 in test [7], in test [8], in test [9], in [17], in [19] and in test [10] was > 100 µM (inactive) each time. Besides, the GI50 in [11] is more than 100 µM; in test [12], > 100 µM (inactive); in test [13] it was > 100 µM (inactive); in test [14] it was > 100 µM (inactive); in test [18], > 100 µM (inactive).

Regarding `CCOc1ccncc1[N+](=O)[O-]`, the GI50 in test [1], in test [2], in test [16], in [3], in test [4] and in test [5] was > 100 µM (inactive) throughout. Also, the GI50 in test [6], in [7], in test [8], in [9], in test [17] and in test [19] was > 100 µM (inactive) in each case. Besides, the GI50 in test [10] was > 100 µM (inactive); in [11] it was more than 100 µM; in [12] it was > 100 µM (inactive); in test [13] it was > 100 µM (inactive); in test [14] it was > 100 µM (inactive); in test [18], > 100 µM (inactive).

As for `CCOC1NC(=O)Oc2ccccc21` (centres undefined), the GI50 in test [1], in [2], in test [16], in test [3], in test [4] and in [5] was > 100 µM (inactive) each time. Besides, the GI50 in [6], in [7], in test [8], in [9], in test [17] and in test [10] was > 100 µM (inactive) each time. Moreover, the GI50 in [11] is more than 100 µM; in test [12], > 100 µM (inactive); in test [13], > 100 µM (inactive); in test [14] it was > 100 µM (inactive); in test [18] it was > 100 µM (inactive); in test [15] it was > 100 µM (inactive).

As to `CCCCCCCCCCCCCCCCCc1cccc(OCOCCOC)c1CO`, the GI50 in [2], in test [16], in [3], in test [4], in test [5] and in test [6] was > 100 µM (inactive) throughout. For the same compound, the GI50 in test [7] is > 100 µM (inactive); in test [8], > 100 µM (inactive); in test [9], > 100 µM (inactive); in [17], > 100 µM (inactive); in test [10], > 100 µM (inactive); in test [11], more than 100 µM. For the same compound, the GI50 in test [12], in test [13], in [14] and in test [15] was > 100 µM (inactive) in each case.

These data come from ChEMBL document CHEMBL1201862, “PubChem BioAssay data set” (2004).
